Experimental data as given in ChEMBL document CHEMBL2331138, “Isolation and structures of axistatins 1-3 from the Republic of Palau marine sponge Agelas axifera Hentschel ” (2013).
Converted amounts (≈) assume the structure as drawn. The source made the active and inactive calls. The rule behind the calls is not given here.

Columns and labels:
DU-145 = experiment: Growth inhibition of human DU145 cells after 48 hrs by SRB assay; type: functional; settings: DU-145, 48 h
KM-20L2 = experiment: Growth inhibition of human KM20L2 cells after 48 hrs by SRB assay; type: functional; settings: KM-20L2, 48 h
Neisseria gonorrhoeae [1] = experiment: Antimicrobial activity against Neisseria gonorrhoeae ATCC 49226 assessed as growth inhibition at 64 ug/mL by NCCLS broth microdilution assay; type: functional, organism-based
Streptococcus pneumoniae [2] = experiment: Antimicrobial activity against Streptococcus pneumoniae ATCC 6303 assessed as growth inhibition at 64 ug/mL by NCCLS broth microdilution assay; type: functional, organism-based
Cryptococcus neoformans [3] = experiment: Antimicrobial activity against Cryptococcus neoformans ATCC 90112 assessed as growth inhibition at 64 ug/mL by NCCLS broth microdilution assay; type: functional, organism-based
MCF7 = experiment: Growth inhibition of human MCF7 cells after 48 hrs by SRB assay; type: functional; settings: MCF7, 48 h
Enterobacter cloacae [4] = experiment: Antimicrobial activity against Enterobacter cloacae ATCC 13047 assessed as growth inhibition at 64 ug/mL by NCCLS broth microdilution assay; type: functional, organism-based
P388 = experiment: Growth inhibition of mouse P388 cells after 48 hrs by Z1 Coulter particle counting; type: functional; settings: P388, 48 h, read-out: ED50 (the source's name)
SF-268 = experiment: Growth inhibition of human SF268 cells after 48 hrs by SRB assay; type: functional; settings: SF-268, 48 h
BXPC-3 = experiment: Growth inhibition of human BxPC3 cells after 48 hrs by SRB assay; type: functional; settings: BXPC-3, 48 h
[5] = test system: Stenotrophomonas maltophilia; experiment: Antimicrobial activity against Stenotrophomonas maltophilia ATCC 13637 assessed as growth inhibition at 64 ug/mL by NCCLS broth microdilution assay; type: functional, organism-based
Micrococcus luteus [6] = experiment: Antimicrobial activity against Micrococcus luteus Presque Isle 456 assessed as growth inhibition at 64 ug/mL by NCCLS broth microdilution assay; type: functional, organism-based
Enterococcus faecalis [7] = experiment: Antimicrobial activity against Enterococcus faecalis ATCC 29212 assessed as growth inhibition at 64 ug/mL by NCCLS broth microdilution assay; type: functional, organism-based
Escherichia coli [8] = experiment: Antimicrobial activity against Escherichia coli ATCC 25922 assessed as growth inhibition at 64 ug/mL by NCCLS broth microdilution assay; type: functional, organism-based
Candida albicans [9] = experiment: Antimicrobial activity against Candida albicans ATCC 90028 assessed as growth inhibition at 64 ug/mL by NCCLS broth microdilution assay; type: functional, organism-based
Staphylococcus aureus [10] = experiment: Antimicrobial activity against Staphylococcus aureus ATCC 29213 assessed as growth inhibition at 64 ug/mL by NCCLS broth microdilution assay; type: functional, organism-based
NCI-H460 = experiment: Growth inhibition of human NCI-H460 cells after 48 hrs by SRB assay; type: functional; settings: NCI-H460, 48 h
Enterococcus faecalis [11] = experiment: Antimicrobial activity against Enterococcus faecalis ATCC 29212 by NCCLS broth microdilution assay; type: functional
Staphylococcus aureus [12] = experiment: Antimicrobial activity against Staphylococcus aureus ATCC 29213 by NCCLS broth microdilution assay; type: functional
Streptococcus pneumoniae [13] = experiment: Antimicrobial activity against Streptococcus pneumoniae ATCC 6303 by NCCLS broth microdilution assay; type: functional
Micrococcus luteus [14] = experiment: Antimicrobial activity against Micrococcus luteus Presque Isle 456 by NCCLS broth microdilution assay; type: functional
Neisseria gonorrhoeae [15] = experiment: Antimicrobial activity against Neisseria gonorrhoeae ATCC 49226 by NCCLS broth microdilution assay; type: functional
Candida albicans [16] = experiment: Antimicrobial activity against Candida albicans ATCC 90028 by NCCLS broth microdilution assay; type: functional
[17] = test system: Stenotrophomonas maltophilia; experiment: Antimicrobial activity against Stenotrophomonas maltophilia ATCC 13637 by NCCLS broth microdilution assay; type: functional
Enterobacter cloacae [18] = experiment: Antimicrobial activity against Enterobacter cloacae ATCC 13047 by NCCLS broth microdilution assay; type: functional
Cryptococcus neoformans [19] = experiment: Antimicrobial activity against Cryptococcus neoformans ATCC 90112 by NCCLS broth microdilution assay; type: functional
Escherichia coli [20] = experiment: Antimicrobial activity against Escherichia coli ATCC 25922 by NCCLS broth microdilution assay; type: functional

| Structure (SMILES) | GI50 (DU-145) | GI50 (MCF7) | EC50 (P388) | GI50 (BXPC-3) | GI50 (NCI-H460) | MIC (Enterococcus faecalis [11]) | MIC (Staphylococcus aureus [12]) | MIC (Streptococcus pneumoniae [13]) | MIC (Micrococcus luteus [14]) | MIC (Neisseria gonorrhoeae [15]) | MIC (Cryptococcus neoformans [19]) | GI50 (KM-20L2) | growth inhibition (GI) (Cryptococcus neoformans [3]) | growth inhibition (GI) (Enterobacter cloacae [4]) | GI50 (SF-268) | growth inhibition (GI) [5] | growth inhibition (GI) (Escherichia coli [8]) | growth inhibition (GI) (Candida albicans [9]) | also measured |
| --- | --- | --- | --- | --- | --- | --- | --- | --- | --- | --- | --- | --- | --- | --- | --- | --- | --- | --- | --- |
| CNc1ncnc(N)c1N(C=O)C/C=C(\C)CC[C@]1(C)[C@@H](C)CC[C@@]2(C)C(COC(=O)c3ccc[nH]3)=CCC[C@@H]12 | 4.6 µM | 3.1 µM | > 18.2 µM | 4 µM | 3.6 µM | – | – | – | – | – | – | 2.9 µM | inactive | inactive | 3.1 µM | inactive | inactive | inactive | growth inhibition (GI) (Neisseria gonorrhoeae [1]): inactive; growth inhibition (GI) (Streptococcus pneumoniae [2]): inactive; growth inhibition (GI) (Micrococcus luteus [6]): inactive; growth inhibition (GI) (Enterococcus faecalis [7]): inactive; growth inhibition (GI) (Staphylococcus aureus [10]): inactive |
| CNc1ncnc(N)c1N(C=O)C/C=C(\C)CC/C=C(\C)CC[C@@]1(C)C(C)=CCC[C@@H]1C | 6.8 µM | 5.9 µM | 15.7 µM | 5.9 µM | 6.8 µM | 8 µg/mL (≈ 18.2 µM) | 8 µg/mL (≈ 18.2 µM) | 32 µg/mL (≈ 72.8 µM) | 4 µg/mL (≈ 9.1 µM) | 16 µg/mL (≈ 36.4 µM) | – | 7.1 µM | inactive | inactive | 3.9 µM | inactive | inactive | inactive | – |

Continued, in another order:

| GI50 (DU-145) | GI50 (MCF7) | EC50 (P388) | GI50 (BXPC-3) | GI50 (NCI-H460) | MIC (Enterococcus faecalis [11]) | MIC (Staphylococcus aureus [12]) | MIC (Streptococcus pneumoniae [13]) | MIC (Micrococcus luteus [14]) | MIC (Neisseria gonorrhoeae [15]) | MIC (Cryptococcus neoformans [19]) | Structure (SMILES) | GI50 (KM-20L2) | growth inhibition (GI) (Cryptococcus neoformans [3]) | growth inhibition (GI) (Enterobacter cloacae [4]) | GI50 (SF-268) | growth inhibition (GI) [5] | growth inhibition (GI) (Escherichia coli [8]) | growth inhibition (GI) (Candida albicans [9]) | also measured |
| --- | --- | --- | --- | --- | --- | --- | --- | --- | --- | --- | --- | --- | --- | --- | --- | --- | --- | --- | --- |
| 4.2 µM | 3.9 µM | > 21.8 µM | 3.5 µM | 3.7 µM | 2 µg/mL | 2 µg/mL | 16 µg/mL | < 0.5 µg/mL | 2 µg/mL | 2 µg/mL | CC1=CCC[C@H](C)[C@@]1(C)CC/C(C)=C/CC/C(C)=C/Cn1c[n+](C)c2ncnc(N)c21.[Cl-] [AGELINE A] | 3.5 µM | – | – | 3.5 µM | – | – | – | MIC (Candida albicans [16]): 4 µg/mL; MIC [17]: 16 µg/mL; MIC (Enterobacter cloacae [18]): 32 µg/mL; MIC (Escherichia coli [20]): 32 µg/mL |
| 4.8 µM | 5.7 µM | 19.8 µM | 4.8 µM | 4.6 µM | 1 µg/mL (≈ 2.27 µM) | 1 µg/mL (≈ 2.27 µM) | 8 µg/mL (≈ 18.2 µM) | 1 µg/mL (≈ 2.27 µM) | 1 µg/mL (≈ 2.27 µM) | 1 µg/mL (≈ 2.27 µM) | CNc1ncnc(N)c1N(C=O)C/C=C(\C)CC[C@]1(C)[C@@H](C)CC[C@@]2(C)C(C)=CCC[C@@H]12 [AXISTATIN 1] | 4.1 µM | – | inactive | 3.6 µM | inactive | inactive | inactive | – |
| 5 µM | 6.8 µM | > 22.8 µM | 5.5 µM | 4.3 µM | 1 µg/mL (≈ 2.27 µM) | 1 µg/mL (≈ 2.27 µM) | 8 µg/mL (≈ 18.2 µM) | 1 µg/mL (≈ 2.27 µM) | 2 µg/mL (≈ 4.55 µM) | 2 µg/mL (≈ 4.55 µM) | CNc1ncnc(N)c1N(C=O)C/C=C(\C)CC[C@@]1(C)[C@H](C)CC[C@@]2(C)C(C)=CCC[C@H]12 [AXISTATIN 2] | 4.1 µM | – | inactive | 3.9 µM | inactive | inactive | inactive | – |
| 7.5 µM | 5.8 µM | 8.9 µM | 6 µM | 5.4 µM | 8 µg/mL (≈ 16.6 µM) | 4 µg/mL (≈ 8.3 µM) | 32 µg/mL (≈ 66.4 µM) | 8 µg/mL (≈ 16.6 µM) | 8 µg/mL (≈ 16.6 µM) | 8 µg/mL (≈ 16.6 µM) | CNc1ncnc(NC(C)C)c1N(C=O)C/C=C(\C)CC/C=C(\C)CC[C@@]1(C)C(C)=CCC[C@@H]1C [AXISTATIN 3] | 6.9 µM | – | inactive | 3.5 µM | inactive | inactive | inactive | – |
